The text below walks through data of the Kinase Knowledgebase extract (Sharma et al. 2016).

Each structure is given as a SMILES string.

What is called IC50 is the point on the concentration scale where inhibition reaches its midpoint. A low value points to inhibition by little substance.

For the assay, the target named is EGFR (human) (UniProt P00533).
Chain of EGFR (human) (P00533 whole entry, looked up): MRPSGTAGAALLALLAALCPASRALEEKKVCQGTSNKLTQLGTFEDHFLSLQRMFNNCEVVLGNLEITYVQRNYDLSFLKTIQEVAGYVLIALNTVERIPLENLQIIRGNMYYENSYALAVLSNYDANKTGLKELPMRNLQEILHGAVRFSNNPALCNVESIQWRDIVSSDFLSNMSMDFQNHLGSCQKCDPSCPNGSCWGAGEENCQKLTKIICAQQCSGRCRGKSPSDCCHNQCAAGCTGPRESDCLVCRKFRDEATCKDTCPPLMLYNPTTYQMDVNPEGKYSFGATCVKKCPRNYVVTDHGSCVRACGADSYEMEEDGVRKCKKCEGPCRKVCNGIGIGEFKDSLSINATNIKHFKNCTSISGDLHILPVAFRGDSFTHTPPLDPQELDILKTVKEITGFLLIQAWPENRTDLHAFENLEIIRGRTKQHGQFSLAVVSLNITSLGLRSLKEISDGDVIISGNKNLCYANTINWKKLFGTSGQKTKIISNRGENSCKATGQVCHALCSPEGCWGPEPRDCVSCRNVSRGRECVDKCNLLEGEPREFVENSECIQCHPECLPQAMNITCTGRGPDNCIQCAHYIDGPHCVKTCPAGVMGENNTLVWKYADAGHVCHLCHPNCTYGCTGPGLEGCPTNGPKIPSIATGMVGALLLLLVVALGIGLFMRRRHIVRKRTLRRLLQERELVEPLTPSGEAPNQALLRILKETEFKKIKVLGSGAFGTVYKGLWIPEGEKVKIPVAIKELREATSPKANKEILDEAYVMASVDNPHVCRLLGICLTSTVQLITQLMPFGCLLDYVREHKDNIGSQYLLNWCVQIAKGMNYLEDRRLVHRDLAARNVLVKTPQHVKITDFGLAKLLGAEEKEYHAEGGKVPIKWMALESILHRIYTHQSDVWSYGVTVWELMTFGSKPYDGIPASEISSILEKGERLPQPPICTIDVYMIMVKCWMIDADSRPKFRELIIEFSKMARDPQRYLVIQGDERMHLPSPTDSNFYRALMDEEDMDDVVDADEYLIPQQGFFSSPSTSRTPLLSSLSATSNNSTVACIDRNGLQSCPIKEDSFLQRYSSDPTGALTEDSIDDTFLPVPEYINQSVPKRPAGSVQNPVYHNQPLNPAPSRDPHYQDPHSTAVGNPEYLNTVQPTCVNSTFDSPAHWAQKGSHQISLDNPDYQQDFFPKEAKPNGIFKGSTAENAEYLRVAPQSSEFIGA
As to `CCN(CC)CCOc1cccc(Nc2nccc(-c3scnc3-c3cccc(NC(=O)c4c(F)cccc4F)c3)n2)c1`, the IC50 is below 100 nM.

In the case of `CN(C)CCOc1ccc(Nc2nccc(-c3sc(N)nc3-c3cccc(C(=O)Nc4c(F)cccc4F)c3)n2)cc1Cl`, the IC50 is below 100 nM. The compound `Nc1nc(-c2cccc(NC(=O)C3CCCCC3)c2)c(-c2ccnc(Nc3ccc4c(c3)CNCC4)n2)s1` gave an IC50 below 100 nM. The figure for `Cc1cc(-c2sc(N)nc2-c2cccc(NC(=O)c3c(F)cccc3F)c2)nc(Nc2cccc(OCCN(C)C)c2)n1` is below 100 nM; for `Cc1nc(-c2cccc(NC(=O)c3c(F)cccc3F)c2)c(-c2ccnc(Nc3cccc(CN4CCCC4)c3)n2)s1` it is below 100 nM; for `O=C(Nc1cccc(-c2ncsc2-c2ccnc(Nc3cccc(CN4CCCC4)c3)n2)c1)c1c(F)cccc1F` it is below 100 nM.

The compound `Nc1nc(-c2cccc(NC(=O)c3c(F)cccc3F)c2)c(-c2ccnc(Nc3cccc(CCS(N)(=O)=O)c3)n2)s1` registered an IC50 below 100 nM. The figure for `CN(C)CCOc1ccc(Nc2nccc(-c3sc(N)nc3-c3cc(NC(=O)c4c(F)cccc4F)ccc3F)n2)cc1Cl` is below 100 nM; for `CN(C)C1Cc2ccc(Nc3nccc(-c4scnc4-c4cccc(NC(=O)Cc5cccs5)c4)n3)cc2C1` (stereo not given) it is below 100 nM. With `Cc1nc(-c2cccc(NC(=O)c3c(F)cccc3F)c2)c(-c2ccnc(Nc3ccc(OC4CCN(C)CC4)c(F)c3)n2)s1` the figure was below 100 nM. The figure for `CCc1nc(-c2cccc(NC(=O)c3c(F)cccc3F)c2)c(-c2ccnc(Nc3ccc(OCCN4CCCC4)c(Cl)c3)n2)s1` is below 100 nM; for `O=C(Nc1cccc(-c2nc(CO)sc2-c2ccnc(Nc3ccc(OCCN4CCCC4)c(F)c3)n2)c1)c1c(F)cccc1F` it is below 100 nM; for `COCCOc1ccc(Nc2nccc(-c3sc(N)nc3-c3cccc(NC(=O)c4c(F)cccc4F)c3)n2)cc1F` it is below 100 nM. In turn, `O=C(Nc1cccc(-c2nc(NC3CC3)sc2-c2ccnc(Nc3ccc(OCCN4CCCC4)c(F)c3)n2)c1)c1c(F)cccc1F` gave an IC50 below 100 nM. With `CN(C)CCCNc1ccc(Nc2nccc(-c3sc(N)nc3-c3cccc(NC(=O)C4CCCCC4)c3)n2)cc1F` the figure was below 100 nM; with `Cc1nc(-c2cccc(NC(=O)c3cc(F)ccc3F)c2)c(-c2ccnc(Nc3ccc(OCCN(C)C)c(Cl)c3)n2)o1`, below 100 nM. In turn, `CN(C)CCOc1ccc(Nc2nccc(-c3sc(N4CCCCC4)nc3-c3cccc(NC(=O)c4c(F)cccc4F)c3)n2)cc1Cl` registered an IC50 below 100 nM.

The compound `NS(=O)(=O)CCc1cccc(Nc2nccc(-c3scnc3-c3cccc(NC(=O)c4c(F)cccc4F)c3)n2)c1` came in with an IC50 below 100 nM. With `CN1CCc2ccc(Nc3nccc(-c4sc(NCCCN5CCOCC5)nc4-c4cccc(NC(=O)c5c(F)cccc5F)c4)n3)cc2C1` the figure was below 100 nM; with `CN(C)CCOc1ccc(Nc2nccc(-c3sc(N)nc3-c3ccc(F)c(NC(=O)c4c(F)cccc4F)c3)n2)cc1Cl`, below 100 nM. With `COCCOc1ccc(Nc2nccc(-c3sc(N)nc3-c3cccc(NC(=O)c4cccn4C)c3)n2)cc1F` the figure was below 100 nM.

`CN(C)c1nc(-c2cccc(NC(=O)c3c(F)cccc3F)c2)c(-c2ccnc(Nc3cccc(CN4CCCC4)c3)n2)s1` yielded an IC50 below 100 nM. Turning to `Cc1nc(-c2cccc(NC(=O)c3cccnc3F)c2)c(-c2ccnc(Nc3ccc4c(c3)CN(C)CC4)n2)s1`, the IC50 was below 100 nM. Compound `COc1ccc(Nc2nccc(-c3sc(NCCN4CCOCC4)nc3-c3cccc(NC(=O)c4cc(F)ccc4F)c3)n2)cc1F` had an IC50 below 100 nM. With `CN(C)CCOc1cccc(Nc2nccc(-c3scnc3-c3cccc(NC(=O)c4cc(F)ccc4F)c3)n2)c1` the figure was below 100 nM; with `Cc1nc(-c2cccc(NC(=O)c3ccc(F)cc3)c2)c(-c2ccnc(Nc3ccc(OCCN(C)C)c(Cl)c3)n2)s1`, below 100 nM. With `CNc1nc(-c2cccc(NC(=O)c3c(F)cccc3F)c2)c(-c2ccnc(Nc3ccc(OCCN(C)C)c(Cl)c3)n2)s1` the figure was below 100 nM. In the case of `Cc1nc(-c2cccc(NC(=O)c3cc(F)ccc3F)c2)c(-c2ccnc(Nc3ccc(OCCN(C)C)c(F)c3)n2)s1`, the IC50 is below 100 nM. The figure for `CN(C)CCOc1ccc(Nc2nccc(-c3sc(NCCCN4CCOCC4)nc3-c3cccc(NC(=O)c4c(F)cccc4F)c3)n2)cc1Cl` is below 100 nM; for `CN(C)CCCNc1ccc(Nc2nccc(-c3sc(N)nc3-c3cccc(NC(=O)c4cc(F)ccc4F)c3)n2)cc1F` it is below 100 nM. The figure for `Cc1nc(-c2cccc(NC(=O)c3c(F)cccc3F)c2)c(-c2ccnc(Nc3ccc(OC4CCN(C(=O)OCc5ccccc5)CC4)c(F)c3)n2)s1` is below 100 nM; for `CS(=O)(=O)CCN1CCN(c2ccc(Nc3nccc(-c4scnc4-c4cccc(NC(=O)c5c(F)cccc5F)c4)n3)cc2F)CC1` it is below 100 nM; for `O=C(Cc1cccs1)Nc1cccc(-c2ncsc2-c2ccnc(Nc3ccc4c(c3)OCC(=O)N4)n2)c1` it is below 100 nM. In turn, `O=C(Nc1cccc(-c2nc(CF)sc2-c2ccnc(Nc3ccc(OCCN4CCCC4)c(F)c3)n2)c1)c1c(F)cccc1F` returned an IC50 below 100 nM. The figure for `COCCNc1nc(-c2cccc(NC(=O)c3cc(F)ccc3F)c2)c(-c2ccnc(Nc3ccc(OC)c(F)c3)n2)s1` is below 100 nM; for `CS(=O)(=O)Cc1ccc(Nc2nccc(-c3sc(N)nc3-c3cccc(NC(=O)c4c(F)cccc4F)c3)n2)cc1` it is below 100 nM. In turn, `CN(C)CCOc1ccc(Nc2nccc(-c3sc(N)nc3-c3cccc(NC(=O)C4CCCCC4)c3)n2)cc1Cl` showed an IC50 below 100 nM. The figure for `O=C(Nc1cccc(-c2ncsc2-c2ccnc(Nc3ccc4c(c3)CNCC4)n2)c1)c1c(F)cccc1F` is below 100 nM. With `CN(C)CCOc1cccc(Nc2nccc(-c3sc(N4CCCCC4)nc3-c3cccc(NC(=O)c4c(F)cccc4F)c3)n2)c1` the figure was below 100 nM. Regarding `CCNc1nc(-c2cccc(NC(=O)c3c(F)cccc3F)c2)c(-c2ccnc(Nc3ccc(OCCN(C)C)c(Cl)c3)n2)s1`, the IC50 was below 100 nM. The figure for `Nc1nc(-c2cccc(NC(=O)c3c(F)cccc3F)c2)c(-c2ccnc(Nc3cccc(F)c3)n2)s1` is below 100 nM; for `Cc1nc(-c2cccc(NC(=O)c3c(F)cccc3F)c2)c(-c2ccnc(Nc3ccc(OCCN(C)C)c(Cl)c3)n2)s1` it is below 100 nM; for `Nc1nc(-c2cccc(NC(=O)c3c(F)cccc3F)c2)c(-c2ccnc(Nc3ccc4c(c3)CNCC4)n2)s1` it is below 100 nM. The figure for `CCc1nc(-c2cccc(NC(=O)c3c(F)cccc3F)c2)c(-c2ccnc(Nc3ccc(OCCN(C)C)c(F)c3)n2)s1` is below 100 nM; for `Nc1nc(-c2cccc(NC(=O)Cc3cccs3)c2)c(-c2ccnc(Nc3cccc(F)c3)n2)s1` it is below 100 nM; for `COCCOc1ccc(Nc2nccc(-c3sc(N)nc3-c3cccc(NC(=O)c4cc(F)ccc4F)c3)n2)cc1F` it is below 100 nM. The figure for `CN(C)CCOc1ccc(Nc2nccc(-c3sc(N)nc3-c3cccc(NC(=O)c4c(F)cccc4F)c3)n2)cc1Cl` is below 100 nM.

For `CCNc1nc(-c2cccc(NC(=O)c3c(F)cccc3F)c2)c(-c2ccnc(Nc3ccc(CCN4CCCC4)c(F)c3)n2)s1`, the IC50 was below 100 nM. With `CN(C)CCOc1cccc(Nc2nccc(-c3sc(N)nc3-c3cccc(C(=O)Nc4c(F)cccc4F)c3)n2)c1` the figure was below 100 nM; with `Nc1nc(-c2cccc(NC(=O)C3CCCCC3)c2)c(-c2ccnc(Nc3cccc(-c4cnco4)c3)n2)s1`, below 100 nM; with `Cc1cccc(C(=O)Nc2cccc(-c3nc(C)sc3-c3ccnc(Nc4ccc(OCCN(C)C)c(Cl)c4)n3)c2)c1`, below 100 nM. The figure for `COc1ccc(Nc2nccc(-c3sc(N)nc3-c3cccc(NC(=O)c4c(F)cccc4F)c3)n2)cc1F` is below 100 nM. The figure for `CS(=O)(=O)Cc1ccc(Nc2nccc(-c3scnc3-c3cccc(NC(=O)c4c(F)cccc4F)c3)n2)cc1` is below 100 nM; for `COc1ccc(Nc2nccc(-c3scnc3-c3cccc(NC(=O)c4c(F)cccc4F)c3)n2)cc1N1CCN(C)CC1` it is below 100 nM. Regarding `Nc1nc(-c2cccc(NC(=O)c3c(F)cccc3F)c2)c(-c2ccnc(Nc3cccc(-c4cnco4)c3)n2)s1`, the IC50 is below 100 nM.

`COCCNc1nc(-c2cccc(NC(=O)c3c(F)cccc3F)c2)c(-c2ccnc(Nc3ccc(OCCN4CCCC4)c(Cl)c3)n2)s1` had an IC50 below 100 nM. With `COc1ccccc1C(=O)Nc1cccc(-c2nc(C)sc2-c2ccnc(Nc3ccc4c(c3)CN(C)CC4)n2)c1` the figure was below 100 nM; with `CNc1nc(-c2cccc(NC(=O)c3cc(F)ccc3F)c2)c(-c2ccnc(Nc3ccc(OC)c(F)c3)n2)s1`, below 100 nM; with `CN1CCc2ccc(Nc3nccc(-c4sc(CS(=O)(=O)C(C)(C)C)nc4-c4cccc(NC(=O)c5c(F)cccc5F)c4)n3)cc2C1`, below 100 nM.

On to `CN(C)CCOc1ccc(Nc2nccc(-c3sc(NS(=O)(=O)CC(F)(F)F)nc3-c3cccc(NC(=O)c4c(F)cccc4F)c3)n2)cc1`, for which the IC50 is below 100 nM. With `Cc1nc(-c2cccc(NC(=O)c3c(F)cccc3F)c2)c(-c2ccnc(Nc3ccc(OC4CCN(C(C)C)CC4)c(F)c3)n2)s1` the figure was below 100 nM. With `CCc1nc(-c2cccc(NC(=O)c3c(F)cccc3F)c2)c(-c2ccnc(Nc3ccc(OCCN4CCCC4)c(F)c3)n2)s1` the figure was below 100 nM; with `CC(C)(C)c1nc(-c2cccc(NC(=O)c3c(F)cccc3F)c2)c(-c2ccnc(Nc3cccc(CN4CCCC4)c3)n2)s1`, below 100 nM. With `CCN(CC)CCOc1cccc(Nc2nccc(-c3scnc3-c3cccc(NC(=O)Cc4cccs4)c3)n2)c1` the figure was below 100 nM. In turn, `CN1CCc2ccc(Nc3nccc(-c4sc(C5CCNCC5)nc4-c4cccc(NC(=O)c5c(F)cccc5F)c4)n3)cc2C1` gave an IC50 below 100 nM. With `Nc1nc(-c2cccc(NC(=O)c3c(F)cccc3F)c2)c(-c2ccnc(Nc3ccc4c(c3)NC(=O)CO4)n2)s1`, the IC50 is below 100 nM. Take `CN(C)CCOc1cccc(Nc2nccc(-c3scnc3-c3cccc(NC(=O)Cc4cccs4)c3)n2)c1`: the IC50 was below 100 nM.

`CN(C)CCOc1ccc(Nc2nccc(-c3sc(N)nc3-c3cccc(NC(=O)c4cc(F)ccc4F)c3)n2)cc1Cl` showed an IC50 below 100 nM. With `Cc1nc(-c2cccc(NC(=O)c3c(F)cccc3F)c2)c(-c2ccnc(Nc3ccc(OCCN(C)C)c(F)c3)n2)s1` the figure was below 100 nM.

`CNc1nc(-c2cccc(NC(=O)c3c(F)cccc3F)c2)c(-c2ccnc(Nc3cccc(CN4CCCC4)c3)n2)s1`: the IC50 was below 100 nM.
